Test results taken from patent US11396502B2, “Substituted heterocyclic derivatives as PI3K inhibitors” (Incyte Corporation, priority 2018, dated 2022).
Structures can show the parent of a compound that is named as a salt. Where two headings read alike, the source gives them in different places.

Assays:
PI3Kγ (p110γ) = PI3Kγ (p110γ) (Homo sapiens (Human), UniProt P48736); assay: PI3K-γ scintillation proximity assay; type: biochemical; conditions: recombinant human PI3Kγ 13 nM, 20 μM PIP2, 2 μM ATP, 120 min, room temperature
Method in brief: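 Recombinant human p110γ (13 nM) with 20 μM PIP2, 2 μM ATP plus [γ-33P]ATP in 20 mM MOPS pH 6.7, 10 mM MgCl2, 5 mM DTT, 0.03% CHAPS, 2% DMSO. Reaction ran 120 min at room temperature, then was quenched with EDTA and read with WGA SPA beads. IC50 came from percent-of-solvent-control curves.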

PI3Kδ (p110δ/p85α) = PI3Kδ (p110δ/p85α) (Homo sapiens (Human), UniProt O00329); assay: PI3Kδ scintillation proximity assay; type: biochemical; conditions: recombinant human PI3Kδ 3.4 nM, 20 μM PIP2, 2 μM ATP, 120 min, room temperature
Method in brief: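 Recombinant p110δ/p85α (3.4 nM) with 20 μM PIP2, 2 μM ATP plus [γ-33P]ATP in MOPS pH 6.7, MgCl2, DTT, CHAPS, 2% DMSO; 120 min, room temperature. EDTA-quenched product captured on WGA SPA beads, scintillation counted. IC50 from percent solvent-control activity versus log inhibitor concentration.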

[1] = tested on: Phosphorylated Ribosomal Protein S6 (RPS6) in THP-1 cells; assay: THP-1 RPS6 ELISA assay; type: cell-based, Human; conditions: 2 hours compound, 10 nM MCP-1 for 15 minutes, Phospho-RPS6 ELISA, read-out: PI3Kγ_THP1_RPS6_ELISA IC50
Method in brief: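 Serum-starved THP-1 cells (2×10^5/well, RPMI) preincubated with compound 2 h at 37° C, then stimulated with 10 nM MCP-1 for 15 min. Lysates assayed by phospho-RPS6 ELISA, absorbance 450 nm (540 nm correction); IC50 from percent inhibition versus log concentration.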

[2] = Homo sapiens, THP-1, serum starved THP-1 cells

PI3Kγ (p110γ), sequence (P48736 whole entry): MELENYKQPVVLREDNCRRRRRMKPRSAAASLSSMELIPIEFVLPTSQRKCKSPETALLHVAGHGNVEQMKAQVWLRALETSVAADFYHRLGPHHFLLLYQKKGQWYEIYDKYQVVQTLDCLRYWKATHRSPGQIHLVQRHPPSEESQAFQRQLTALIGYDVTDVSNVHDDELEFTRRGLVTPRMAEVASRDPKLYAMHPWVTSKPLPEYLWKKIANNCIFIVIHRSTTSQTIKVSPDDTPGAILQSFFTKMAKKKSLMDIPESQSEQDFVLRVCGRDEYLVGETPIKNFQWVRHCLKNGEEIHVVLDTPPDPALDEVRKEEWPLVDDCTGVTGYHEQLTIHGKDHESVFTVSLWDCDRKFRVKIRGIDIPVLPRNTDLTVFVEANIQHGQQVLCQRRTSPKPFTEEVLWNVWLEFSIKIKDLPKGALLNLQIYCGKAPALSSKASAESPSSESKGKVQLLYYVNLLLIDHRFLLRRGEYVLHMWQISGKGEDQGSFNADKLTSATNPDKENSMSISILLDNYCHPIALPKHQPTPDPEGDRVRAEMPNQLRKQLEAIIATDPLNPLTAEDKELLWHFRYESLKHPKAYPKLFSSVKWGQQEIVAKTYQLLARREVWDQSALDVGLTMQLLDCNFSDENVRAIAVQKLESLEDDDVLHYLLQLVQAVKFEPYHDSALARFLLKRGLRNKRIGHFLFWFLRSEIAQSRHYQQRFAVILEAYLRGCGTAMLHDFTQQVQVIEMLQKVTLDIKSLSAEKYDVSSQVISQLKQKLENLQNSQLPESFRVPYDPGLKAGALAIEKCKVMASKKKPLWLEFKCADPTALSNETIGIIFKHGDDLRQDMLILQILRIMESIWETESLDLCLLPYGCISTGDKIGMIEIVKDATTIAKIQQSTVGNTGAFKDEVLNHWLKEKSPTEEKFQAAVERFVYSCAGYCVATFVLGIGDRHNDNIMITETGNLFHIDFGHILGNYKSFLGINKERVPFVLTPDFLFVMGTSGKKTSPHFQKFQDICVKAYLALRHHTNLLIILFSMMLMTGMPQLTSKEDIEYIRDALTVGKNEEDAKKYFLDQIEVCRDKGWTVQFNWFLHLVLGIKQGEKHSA
PI3Kδ (p110δ/p85α), sequence (O00329 whole entry): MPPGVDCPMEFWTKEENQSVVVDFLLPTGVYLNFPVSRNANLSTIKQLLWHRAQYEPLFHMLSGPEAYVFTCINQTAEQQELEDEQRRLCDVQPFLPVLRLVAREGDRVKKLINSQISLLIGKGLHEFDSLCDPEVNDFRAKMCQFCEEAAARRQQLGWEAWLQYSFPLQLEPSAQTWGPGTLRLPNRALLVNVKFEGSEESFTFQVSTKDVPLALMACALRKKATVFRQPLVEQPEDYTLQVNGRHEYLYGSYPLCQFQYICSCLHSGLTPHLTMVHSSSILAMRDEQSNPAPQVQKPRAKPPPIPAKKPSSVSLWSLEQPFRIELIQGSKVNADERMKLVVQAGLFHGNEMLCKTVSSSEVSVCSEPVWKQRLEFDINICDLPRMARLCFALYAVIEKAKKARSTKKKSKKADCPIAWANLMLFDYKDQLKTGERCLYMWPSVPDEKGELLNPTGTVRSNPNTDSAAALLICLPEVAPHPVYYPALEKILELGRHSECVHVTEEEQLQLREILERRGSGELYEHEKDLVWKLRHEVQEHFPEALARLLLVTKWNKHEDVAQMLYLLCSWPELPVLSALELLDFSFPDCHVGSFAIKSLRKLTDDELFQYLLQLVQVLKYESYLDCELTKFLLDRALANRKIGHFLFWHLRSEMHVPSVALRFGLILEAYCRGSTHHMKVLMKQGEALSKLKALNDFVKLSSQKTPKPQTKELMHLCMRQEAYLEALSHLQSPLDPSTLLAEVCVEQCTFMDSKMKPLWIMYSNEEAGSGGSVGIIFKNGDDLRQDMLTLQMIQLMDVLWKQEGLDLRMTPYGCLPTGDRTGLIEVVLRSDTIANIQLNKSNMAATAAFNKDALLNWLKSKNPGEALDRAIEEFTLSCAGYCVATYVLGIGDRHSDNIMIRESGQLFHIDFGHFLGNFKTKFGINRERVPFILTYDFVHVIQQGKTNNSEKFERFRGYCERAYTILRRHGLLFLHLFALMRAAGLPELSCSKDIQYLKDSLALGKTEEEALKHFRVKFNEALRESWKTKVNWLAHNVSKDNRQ
PI3Kδ (p110δ/p85α), sequence (P27986 whole entry partner): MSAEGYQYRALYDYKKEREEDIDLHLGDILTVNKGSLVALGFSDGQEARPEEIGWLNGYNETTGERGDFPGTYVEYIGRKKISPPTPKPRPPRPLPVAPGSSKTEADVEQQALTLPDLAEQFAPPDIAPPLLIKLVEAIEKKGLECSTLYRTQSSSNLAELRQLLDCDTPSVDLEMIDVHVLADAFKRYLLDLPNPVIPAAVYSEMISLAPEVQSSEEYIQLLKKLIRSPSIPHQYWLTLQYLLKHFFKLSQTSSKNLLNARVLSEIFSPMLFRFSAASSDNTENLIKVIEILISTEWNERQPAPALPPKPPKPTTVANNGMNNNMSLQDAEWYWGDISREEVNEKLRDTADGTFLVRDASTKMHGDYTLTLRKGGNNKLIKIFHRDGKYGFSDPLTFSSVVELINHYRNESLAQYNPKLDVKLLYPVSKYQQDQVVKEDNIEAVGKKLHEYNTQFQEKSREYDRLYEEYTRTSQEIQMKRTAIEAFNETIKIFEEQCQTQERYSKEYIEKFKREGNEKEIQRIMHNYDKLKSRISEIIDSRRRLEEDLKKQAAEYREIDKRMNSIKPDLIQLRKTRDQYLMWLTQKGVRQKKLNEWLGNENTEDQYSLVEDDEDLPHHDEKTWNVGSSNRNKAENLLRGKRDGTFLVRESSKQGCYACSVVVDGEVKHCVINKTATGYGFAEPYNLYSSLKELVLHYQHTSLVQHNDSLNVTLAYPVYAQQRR

| IC50 (PI3Kγ (p110γ)) [nM] | IC50 (PI3Kδ (p110δ/p85α)) [nM] | IC50 [1, 2] [nM] | IC50 ([1]; serum starved THP-1 cells, Trifluoroacetate Salt) [nM] | Compound |
| --- | --- | --- | --- | --- |
| < 100 | > 2000 | > 1000 |  | C[C@@H](C1CC1)N1Cc2cc(-c3ccnc(-c4ccn[nH]4)c3)cc(S(C)(=O)=O)c2C1=O [Example 15, (S)-5-(2-(1H-Pyrazol-5-yl)pyridin-4-yl)-2-(1-cyclopropylethyl)-7-(methylsulfonyl)isoindolin-1-one, trifluoroacetate salt] |
| < 100 | 500 to 2000 | < 100 |  | Cc1cnc(-c2cc(-c3cc4c(c(S(C)(=O)=O)c3)C(=O)N([C@@H](C)C3CC3)C4)ccn2)[nH]1 [Example 16, (S)-2-(1-Cyclopropylethyl)-5-(2-(5-methyl-1H-imidazol-2-yl)pyridin-4-yl)-7-(methylsulfonyl)isoindolin-1-one, Trifluoroacetate Salt] |
| < 100 | > 2000 | 500 to 1000 |  | C[C@@H](C1CC1)N1Cc2cc(-c3ccnc(-c4ncc[nH]4)c3)cc(S(C)(=O)=O)c2C1=O [Example 17, (S)-5-(2-(1H-Imidazol-2-yl)pyridin-4-yl)-2-(1-cyclopropylethyl)-7-(methylsulfonyl)isoindolin-1-one, trifluoroacetate salt] |
| < 100 | > 2000 | 100 to 500 |  | Cc1nc(-c2cc(-c3cc4c(c(C(O)CO)c3)C(=O)N([C@@H](C)C3CC3)C4)ccn2)[nH]c1C (stereo partly drawn) [Example 18, 2-((S)-1-Cyclopropylethyl)-7-(1,2-dihydroxyethyl)-5-(2-(4,5-dimethyl-1H-imidazol-2-yl)pyridin-4-yl)isoindolin-1-one] |
| < 100 | > 2000 |  | 100 to 500 | Cc1nc(-c2cc(-c3cc4c(c(S(C)(=N)=O)c3)C(=O)N([C@@H](C)C3CC3)C4)ccn2)[nH]c1C (stereo partly drawn) [Example 20, 2-((S)-1-Cyclopropylethyl)-5-(2-(4,5-dimethyl-1H-imidazol-2-yl)pyridin-4-yl)-7-(S-methylsulfonimidoyl)isoindolin-1-one, Trifluoroacetate Salt] |
| < 100 | 500 to 2000 | 100 to 500 |  | CN=S(C)(=O)c1cc(-c2ccnc(-c3nc(C)c(C)[nH]3)c2)cc2c1C(=O)N([C@@H](C)C1CC1)C2 (stereo partly drawn) [Example 23, 2-((S)-1-Cyclopropylethyl)-5-(2-(4,5-dimethyl-1H-imidazol-2-yl)pyridin-4-yl)-7-(N,S-dimethylsulfonimidoyl)isoindolin-1-one] |
